Article PMC12658632, “Discovery of Sesamolin as a Potential Anti-Helicobacter pylori Agent by Virtual Screening against the Essential Response Regulator HsrA with In Vitro Evaluation” (ACS Omega, 2025)
Read-outs that look alike come from different tables or passages of the source.

How the values were obtained:
[1] = molecular target: T1, HsrA (Helicobacter pylori (strain of the recombinant protein not stated)) (UniProt O25684); experiment: EMSA; conditions: EMSA binding buffer (Beyotime GS005, composition and pH not stated), 25 uL, 4 uM HsrA, 50 ng each DNA, 25 C 30 min; 5% native PAGE, 0.5x TBE
T1 sequence: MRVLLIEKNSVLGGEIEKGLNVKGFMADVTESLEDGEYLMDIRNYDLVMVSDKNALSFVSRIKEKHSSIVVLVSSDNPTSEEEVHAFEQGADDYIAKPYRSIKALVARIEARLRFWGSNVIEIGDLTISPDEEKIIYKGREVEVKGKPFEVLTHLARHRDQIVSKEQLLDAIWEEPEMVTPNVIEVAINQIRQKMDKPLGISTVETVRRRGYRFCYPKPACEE

[2] = molecular target: T2, HsrA (Helicobacter pylori, UniProt O25684); experiment: SPR (Biacore T200, […] model); also EMSA inhibition of HsrA-DNA binding
T2 construct: gene HP_1043
T2 sequence (O25684 entry or part of it): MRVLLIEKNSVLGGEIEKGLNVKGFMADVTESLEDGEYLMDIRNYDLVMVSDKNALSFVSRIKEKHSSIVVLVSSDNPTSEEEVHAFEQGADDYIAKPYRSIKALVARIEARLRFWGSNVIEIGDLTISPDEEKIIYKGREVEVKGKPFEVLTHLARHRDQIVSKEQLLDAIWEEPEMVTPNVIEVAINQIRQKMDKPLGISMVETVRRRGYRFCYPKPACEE

“GCCAAAACGCCTAAAGCCATGATAACCTTTTTCATCGTTTGTCTCCTCTACTTATCAAAATGATCTTAAAATGATACAATTACAAGTTTAAGTTTTGCTTAAAAATGAAGTGAAAATGAGAGAAATAAATATGATTTTATACATTCATATCCCCTTTTGTGAAAATAAATGCGGTTATTGCGCTTTCAA (double strand) [hp1227 promoter probe]” was tested, and the binding [1] was “binds”.

In the case of `c1cc2c(cc1O[C@H]1OC[C@H]3[C@@H]1CO[C@@H]3c1ccc3c(c1)OCO3)OCO2` [compound 3, Sesamolin], the Kd [2] is reported as 17.1 nM.

`c1c2c(cc3c1OCO3)-c1cc3ccc4c(c3c[n+]1CC2)OCO4` [compound 6, Coptisine] was tested, and the Kd ([2]; read-out: Kd) was 400 nM.
